One test concerns Puccinia triticina. Kind of test: Wheat Brown Rust (PUCCRT) disease control on wheat seedlings. The note with it: Low Volume (121.5 g/H). Format: in vivo. The procedure: Technical grades of materials were dissolved in acetone, which were then mixed with nine volumes of water containing 110 ppm Triton X-100. The fungicide solutions were applied onto wheat seedlings using an automated booth sprayer to run-off. All sprayed plants were allowed to air dry prior to further handling. All fungicides were evaluated using the aforementioned method for their activity vs. all target diseases, unless stated otherwise. Wheat leaf blotch and brown rust activity were also evaluated using track spray applications, in which case the fungicides were formulated as EC formulations, containing 0.1% Trycol 5941 in the spray solutions. Wheat plants (variety Yuma) were grown from seed in a greenhouse in 50% mineral soil/50% soil-less Metro mix until the first leaf was fully emerged, with 7-10 seedlings per pot. These plants were inoculated with an aqueous spore suspension of Septoria tritici either prior to or after fungicide treatments. After inoculation the plants were kept in 100% relative humidity (one day in a dark dew chamber followed by two to three days in a lighted dew chamber at 20° C.) to permit spores to germinate and infect the leaf. The plants were then transferred to a greenhouse set at 20° C. for disease to develop. When disease symptoms were fully expressed on the 1st leaves of untreated plants, infection levels were assessed on a scale of 0 to 100 percent disease severity. Percent disease control was calculated using the ratio of disease severity on treated plants relative to untreated plants. Example B: Evaluation of Fungicidal Activity: Wheat Brown Rust (Puccinia triticina; Synonym: Puccinia recondita f. sp. tritici; Bayer code PUCCRT) Wheat plants (variety Yuma) were grown from seed in a greenhouse in 50% mineral soil/50% soil-less Metro mix until the first leaf was fully emerged, with 7-10 seedlings per pot. These plants were inoculated with an aqueous spore suspension of Puccinia triticina either prior to or after fungicide treatments. After inoculation the plants were kept in a dark dew room at 22° C. with 100% relative humidity overnight to permit spores to germinate and infect the leaf. The plants were then transferred to a greenhouse set at 24° C. for disease to develop. Fungicide formulation, application and disease assessment followed the procedures as described in the Example A.

A further test has as its system Zymoseptoria tritici. As to the kind of experiment: Leaf Blotch of Wheat (SEPTTR) disease control on wheat seedlings. Format: in vivo. To be noted: Low Volume (121.5 g/H). The procedure: Example A: Evaluation of Fungicidal Activity: Leaf Blotch of Wheat (Mycosphaerella graminicola; Anamorph: Zymoseptoria tritici; Bayer code […]) Technical grades of materials were dissolved in acetone, which were then mixed with nine volumes of water containing 110 ppm Triton X-100. The fungicide solutions were applied onto wheat seedlings using an automated booth sprayer to run-off. All sprayed plants were allowed to air dry prior to further handling. All fungicides were evaluated using the aforementioned method for their activity vs. all target diseases, unless stated otherwise. Wheat leaf blotch and brown rust activity were also evaluated using track spray applications, in which case the fungicides were formulated as EC formulations, containing 0.1% Trycol 5941 in the spray solutions. Wheat plants (variety Yuma) were grown from seed in a greenhouse in 50% mineral soil/50% soil-less Metro mix until the first leaf was fully emerged, with 7-10 seedlings per pot. These plants were inoculated with an aqueous spore suspension of Septoria tritici either prior to or after fungicide treatments. After inoculation the plants were kept in 100% relative humidity (one day in a dark dew chamber followed by two to three days in a lighted dew chamber at 20° C.) to permit spores to germinate and infect the leaf. The plants were then transferred to a greenhouse set at 20° C. for disease to develop. When disease symptoms were fully expressed on the 1st leaves of untreated plants, infection levels were assessed on a scale of 0 to 100 percent disease severity. Percent disease control was calculated using the ratio of disease severity on treated plants relative to untreated plants.

Setting [1] is: 24 h, 1 Day Protectant, read-out: PUCCRT disease control, 1 DP.
Setting [2] is: 72 h, 3 Day Curative, read-out: PUCCRT disease control, 3 DC.
Where [3] appears, read: 24 h, 1 Day Protectant, read-out: SEPTTR disease control, 1 DP.
Setting [4] is: 72 h, 3 Day Curative, read-out: SEPTTR disease control, 3 DC.

Molecules are shown by their SMILES. Like-named read-outs stand apart in the source and are kept apart here. A value given as a limit tells only on which side of the number the result lay.

Consider `COc1ccnc(C(=O)N[C@H]2CCOC[C@@H](Cc3ccccc3)[C@H](C)OC2=O)c1OC(C)=O` [Compound 1], for which the pest or weed control at 121.5 g/ha in the test on Puccinia triticina (setting [1]), with Puccinia triticina (setting [2]), in the test with Zymoseptoria tritici (setting [3]) and with Zymoseptoria tritici (setting [4]) was > 70% in each case.

As to `COCC[C@H]1OCC[C@H](NC(=O)c2nccc(OC)c2OC(C)=O)C(=O)O[C@@H](C)[C@@H]1Cc1ccccc1` [Compound 4], the pest or weed control at 121.5 g/ha with Puccinia triticina (setting [1]), in the test on Puccinia triticina (setting [2]), in the test on Zymoseptoria tritici (setting [3]) and with Zymoseptoria tritici (setting [4]) was > 70% each time.

For `COc1ccnc(C(=O)N[C@H]2CCOC[C@@H](Cc3ccc(F)cc3)[C@H](C)OC2=O)c1OC(C)=O` [Compound 5], the pest or weed control at 121.5 g/ha was > 70% in the test on Puccinia triticina (setting [1]), > 70% in the test on Puccinia triticina (setting [2]), > 70% in the test on Zymoseptoria tritici (setting [3]) and < 70% in the test with Zymoseptoria tritici (setting [4]).

For the molecule `CCCC[C@H]1OCC[C@H](NC(=O)c2nccc(OC)c2OC(C)=O)C(=O)O[C@@H](C)[C@@H]1Cc1ccc(F)cc1` [Compound 6], the pest or weed control at 121.5 g/ha in the test with Puccinia triticina (setting [1]), in the test with Puccinia triticina (setting [2]), in the test on Zymoseptoria tritici (setting [3]) and with Zymoseptoria tritici (setting [4]) was > 70% each time.

Regarding `COc1ccnc(C(=O)N[C@H]2CCO[C@H](CCc3ccccc3)[C@@H](Cc3ccc(F)cc3)[C@H](C)OC2=O)c1OC(C)=O` [Compound 7, 2-(((2R,3S,4S,7S)-3-(4-fluorobenzyl)-4-methyl-6-oxo-2-phenethyl-1,5-dioxonan-7-yl)carbamoyl)-4-methoxypyridin-3-yl acetate], the pest or weed control at 121.5 g/ha in the test with Puccinia triticina (setting [1]), in the test on Puccinia triticina (setting [2]), in the test with Zymoseptoria tritici (setting [3]) and in the test on Zymoseptoria tritici (setting [4]) was > 70% throughout.

Take `COCC[C@H]1OCC[C@H](NC(=O)c2nccc(OC)c2OC(C)=O)C(=O)O[C@@H](C)[C@@H]1Cc1ccc(F)cc1` [Compound 8]: the pest or weed control at 121.5 g/ha was > 70% in the test with Puccinia triticina (setting [1]), > 70% with Puccinia triticina (setting [2]), > 70% in the test with Zymoseptoria tritici (setting [3]) and < 70% with Zymoseptoria tritici (setting [4]).

For the molecule `COc1ccnc(C(=O)N[C@H]2CCO[C@H](CCc3ccccc3)[C@@H](CCC(C)C)[C@H](C)OC2=O)c1OC(C)=O` [Compound 9], the pest or weed control at 121.5 g/ha in the test on Puccinia triticina (setting [1]), with Puccinia triticina (setting [2]), with Zymoseptoria tritici (setting [3]) and in the test on Zymoseptoria tritici (setting [4]) was > 70% in each case.

Turning to `COc1ccnc(C(=O)N[C@H]2CCO[C@H](CCc3ccc(F)cc3)[C@@H](CCC(C)C)[C@H](C)OC2=O)c1OC(C)=O` [Compound 10], the pest or weed control at 121.5 g/ha with Puccinia triticina (setting [1]), with Puccinia triticina (setting [2]), in the test on Zymoseptoria tritici (setting [3]) and in the test on Zymoseptoria tritici (setting [4]) was > 70% throughout.

For `COc1ccnc(C(=O)N[C@H]2CCOC[C@@H](Cc3ccccc3-c3ccccc3)[C@H](C)OC2=O)c1OC(C)=O` [Compound 11], the pest or weed control at 121.5 g/ha is > 70% in the test with Puccinia triticina (setting [1]), > 70% with Puccinia triticina (setting [2]), > 70% in the test on Zymoseptoria tritici (setting [3]) and < 70% in the test with Zymoseptoria tritici (setting [4]).

Consider `COc1ccnc(C(=O)N[C@H]2CCO[C@H](Cc3ccccc3)[C@@H](CCC(C)C)[C@H](C)OC2=O)c1OC(C)=O` [Compound 12], for which the pest or weed control at 121.5 g/ha with Puccinia triticina (setting [1]), in the test on Puccinia triticina (setting [2]), in the test on Zymoseptoria tritici (setting [3]) and with Zymoseptoria tritici (setting [4]) was > 70% in each case.

On to `CCCC[C@H]1[C@H](C)OC(=O)[C@@H](NC(=O)c2nccc(OC)c2OC(C)=O)CCO[C@@H]1CCc1ccccc1` [Compound 13], for which the pest or weed control at 121.5 g/ha in the test on Puccinia triticina (setting [1]), with Puccinia triticina (setting [2]), in the test with Zymoseptoria tritici (setting [3]) and with Zymoseptoria tritici (setting [4]) was > 70% each time.

For `CCCC[C@H]1[C@H](C)OC(=O)[C@@H](NC(=O)c2nccc(OC)c2OC(C)=O)CCO[C@@H]1CC` [Compound 14], the pest or weed control at 121.5 g/ha in the test with Puccinia triticina (setting [1]) was > 70%; with Puccinia triticina (setting [2]), > 70%; in the test on Zymoseptoria tritici (setting [3]), > 70%; in the test on Zymoseptoria tritici (setting [4]) it was < 70%.

`CCCC[C@H]1[C@H](C)OC(=O)[C@@H](NC(=O)c2nccc(OC)c2OC(C)=O)CCO[C@@H]1COc1ccccc1` [Compound 15]: the pest or weed control at 121.5 g/ha in the test on Puccinia triticina (setting [1]), in the test on Puccinia triticina (setting [2]), in the test with Zymoseptoria tritici (setting [3]) and in the test with Zymoseptoria tritici (setting [4]) was > 70% each time.

Regarding `COc1ccnc(C(=O)N[C@H]2CCOC[C@@H](Cc3ccccc3)[C@H](C)OC2=O)c1OCOC(C)=O` [Compound 16], the pest or weed control at 121.5 g/ha with Puccinia triticina (setting [1]) was > 70%; in the test with Puccinia triticina (setting [2]), > 70%; in the test on Zymoseptoria tritici (setting [3]) it was < 70%; in the test on Zymoseptoria tritici (setting [4]) it was < 70%.

With `CCCC[C@H]1OCC[C@H](NC(=O)c2nccc(OC)c2OCOC(C)=O)C(=O)O[C@@H](C)[C@@H]1Cc1ccccc1` [Compound 18], the pest or weed control at 121.5 g/ha in the test with Puccinia triticina (setting [1]), with Puccinia triticina (setting [2]), in the test with Zymoseptoria tritici (setting [3]) and with Zymoseptoria tritici (setting [4]) was > 70% in each case.

On to `COc1ccnc(C(=O)N[C@H]2CCO[C@H](Cc3ccccc3)[C@@H](Cc3ccccc3)[C@H](C)OC2=O)c1OCOC(C)=O` [Compound 19], for which the pest or weed control at 121.5 g/ha in the test on Puccinia triticina (setting [1]), in the test with Puccinia triticina (setting [2]), in the test on Zymoseptoria tritici (setting [3]) and in the test with Zymoseptoria tritici (setting [4]) was > 70% each time.

Regarding `COCC[C@H]1OCC[C@H](NC(=O)c2nccc(OC)c2OCOC(C)=O)C(=O)O[C@@H](C)[C@@H]1Cc1ccccc1` [Compound 20], the pest or weed control at 121.5 g/ha with Puccinia triticina (setting [1]), with Puccinia triticina (setting [2]), in the test with Zymoseptoria tritici (setting [3]) and in the test with Zymoseptoria tritici (setting [4]) was > 70% each time.

In the case of `COc1ccnc(C(=O)N[C@H]2CCOC[C@@H](Cc3ccc(F)cc3)[C@H](C)OC2=O)c1OCOC(C)=O` [Compound 21], the pest or weed control at 121.5 g/ha is > 70% in the test with Puccinia triticina (setting [1]), > 70% in the test on Puccinia triticina (setting [2]), > 70% in the test on Zymoseptoria tritici (setting [3]) and < 70% in the test with Zymoseptoria tritici (setting [4]).

In the case of `CC[C@H]1OCC[C@H](NC(=O)c2nccc(OC)c2OCOC(C)=O)C(=O)O[C@@H](C)[C@@H]1Cc1ccc(F)cc1` [Compound 22], the pest or weed control at 121.5 g/ha in the test with Puccinia triticina (setting [1]), in the test with Puccinia triticina (setting [2]), in the test with Zymoseptoria tritici (setting [3]) and in the test with Zymoseptoria tritici (setting [4]) was > 70% each time.

`CCCC[C@H]1OCC[C@H](NC(=O)c2nccc(OC)c2OCOC(C)=O)C(=O)O[C@@H](C)[C@@H]1Cc1ccc(F)cc1` [Compound 23]: the pest or weed control at 121.5 g/ha with Puccinia triticina (setting [1]), with Puccinia triticina (setting [2]), in the test with Zymoseptoria tritici (setting [3]) and with Zymoseptoria tritici (setting [4]) was > 70% throughout.

For the origin of these results see patent US9686984B2, “Macrocyclic picolinamides as fungicides” (DOW AGROSCIENCES LLC, priority 2014, dated 2017).
